Measurements taken from US11000033B2, “Ketone or oxime compound, and herbicide” (NISSAN CHEMICAL CORPORATION, priority 2014, dated 2021).

Assays:
Format in all cases: in vivo
corn = assay: Test Example 5: effect on crop by foliage application, plastic box (symbol c); conditions: 320 g/ha, 3 weeks after application
Summary of the method: (§1)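 Sterilized diluvial soil, plastic box (21 × 13 × 7 cm); spot sowing, ~1.5 cm soil cover; greenhouse 25–30° C.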

Avena fatua [1] = assay: Test Example 5: herbicidal effect by foliage application, plastic box (symbol I); conditions: 320 g/ha, 3 weeks after application
Summary of the method: (§2)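 Sowing in sterilized diluvial soil, 14 days' greenhouse growth at 25° C. to 30° C., then uniform small-sprayer foliar application of aqueous emulsion dilution; plants scored three weeks afterwards.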

rapeseed [2] = assay: Test Example 4: effect on crop by soil treatment (symbol g); conditions: for g: rapeseed, effect grade on crop: 320 g/ha
Summary of the method: (§3)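 Grown at 25° C. to 30° C. in a greenhouse, the crops came from seed sown spot-wise in sterilized diluvial soil under roughly 1.5 cm of covering soil.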

[3] = system: directly sowed rice plant; assay: Test Example 3: effect on crop by foliage application, Wagner pot (symbol b); conditions: application herbicide amount 320 g/ha
Summary of the method: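 Steps: fill a 1/10000-are Wagner pot with alluvial soil; add water and mix to submerge at 0.1–0.5 cm depth; sow rice plus Echinochloa crus-galli var. crus-galli, Leptochloa chinensis and Cyperus difformis; grow in a 25–30 °C greenhouse.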

Chenopodium album [4] = assay: Test Example 5: herbicidal effect by foliage application, plastic box (symbol O); conditions: 320 g/ha, 3 weeks after application
Summary of the method: as §2

Scirpus juncoides = assay: Test Example 1: herbicidal activity, application before weed generation in submerged conditions (symbol B); conditions: application herbicide amount 320 g/ha
Summary of the method: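 Weeds are sown into submerged alluvial soil alongside transplanted 2.5-leaf rice, and the compound, as an emulsion diluted to a set rate, is applied onto the water before emergence. Rating on the 0–5 herbicidal-ratio scale follows 3 weeks of greenhouse growth at 25–30 °C.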

Veronica persica = assay: Test Example 5: herbicidal effect by foliage application, plastic box (symbol R); conditions: 320 g/ha, 3 weeks after application
Summary of the method: as §2

Digitaria ciliaris [5] = assay: Test Example 5: herbicidal effect by foliage application, plastic box (symbol F); conditions: 320 g/ha, 3 weeks after application
Summary of the method: as §2

rapeseed [6] = assay: Test Example 5: effect on crop by foliage application, plastic box (symbol g); conditions: 320 g/ha, 3 weeks after application
Summary of the method: as §1

wheat = assay: Test Example 5: effect on crop by foliage application, plastic box (symbol e); conditions: 320 g/ha, 3 weeks after application
Summary of the method: as §1

Stellaria media = assay: Test Example 5: herbicidal effect by foliage application, plastic box (symbol P); conditions: 320 g/ha, 3 weeks after application
Summary of the method: as §2

[7] = system: Echinochloa crus-galli var. crus-galli; assay: Test Example 4: herbicidal effect by soil treatment (symbol H); conditions: for H: Echinochloa crus-galli var. crus-galli, herbicidal effect grade: 320 g/ha
Summary of the method: (§4)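 Seeds were sown in sterilized diluvial soil, covered with about 1.5 cm of soil, and the soil surface was sprayed with a water-diluted emulsion of the compound at a predetermined rate. Plants grew in a greenhouse at 25° C. to 30° C.; effects were scored visually 3 weeks after application.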

Digitaria ciliaris [8] = assay: Test Example 4: herbicidal effect by soil treatment (symbol F); conditions: for F: Digitaria ciliaris, herbicidal effect grade: 320 g/ha
Summary of the method: as §4

rice = assay: Test Example 4: effect on crop by soil treatment (symbol b); conditions: for b: directly sowed rice plant, effect grade on crop: 320 g/ha
Summary of the method: as §3

Avena fatua [9] = assay: Test Example 4: herbicidal effect by soil treatment (symbol I); conditions: for I: Avena fatua, herbicidal effect grade: 320 g/ha
Summary of the method: as §4

Chenopodium album [10] = assay: Test Example 4: herbicidal effect by soil treatment (symbol O); conditions: for O: Chenopodium album, herbicidal effect grade: 320 g/ha
Summary of the method: as §4

Lolium multiflorum Lam. = assay: Test Example 4: herbicidal effect by soil treatment (symbol K); conditions: for K: Lolium multiflorum Lam., herbicidal effect grade: 320 g/ha
Summary of the method: as §4

[11] = application herbicide amount 320 g/ha

SMILES | c: corn, effect on crop (criteria 0-5) (corn) | I: Avena fatua, herbicidal effect (criteria 0-5) (Avena fatua [1]) | g: rapeseed, effect grade on crop (rapeseed [2]) | effect on crop b (directly sowed rice plant), grade 0-5 [3] | O: Chenopodium album, herbicidal effect (criteria 0-5) (Chenopodium album [4]) | Herbicidal effect grade, B: Scirpus juncoides (Scirpus juncoides) | R: Veronica persica, herbicidal effect (criteria 0-5) (Veronica persica) | F: Digitaria ciliaris, herbicidal effect (criteria 0-5) (Digitaria ciliaris [5]) | g: rapeseed, effect on crop (criteria 0-5) (rapeseed [6]) | e: wheat, effect on crop (criteria 0-5) (wheat) | P: Stellaria media, herbicidal effect (criteria 0-5) (Stellaria media) | H: Echinochloa crus-galli var. crus-galli, herbicidal effect grade [7] | F: Digitaria ciliaris, herbicidal effect grade (Digitaria ciliaris [8]) | b: directly sowed rice plant, effect grade on crop (rice) | I: Avena fatua, herbicidal effect grade (Avena fatua [9]) | O: Chenopodium album, herbicidal effect grade (Chenopodium album [10]) | K: Lolium multiflorum Lam., herbicidal effect grade (Lolium multiflorum Lam.) | also measured
CON=C(C)CC1CC(OC(=O)c2nsc(Cl)c2Cl)=C(c2c(C)cc(C)cc2C)C1=O (stereo not shown) [1-099] | 5 (Herbicidal ratio of 90% or more (almost completely withered)) | 5 (Herbicidal ratio of 90% or more (almost completely withered)) | 5 (Herbicidal ratio of 90% or more (almost completely withered)) | 5 (Herbicidal ratio of 90% or more (almost completely withered)) | 3 (Herbicidal ratio of 40% or higher and lower than 70%) | 4 (Herbicidal ratio of 70% or higher and lower than 90%) | 3 (Herbicidal ratio of 40% or higher and lower than 70%) | 5 (Herbicidal ratio of 90% or more (almost completely withered)) | 5 (Herbicidal ratio of 90% or more (almost completely withered)) | 5 (Herbicidal ratio of 90% or more (almost completely withered)) | 3 (Herbicidal ratio of 40% or higher and lower than 70%) | 5 (Herbicidal ratio of 90% or more (almost completely withered)) | 5 (Herbicidal ratio of 90% or more (almost completely withered)) | 5 (Herbicidal ratio of 90% or more (almost completely withered)) | 2 (Herbicidal ratio of 20% or higher and lower than 40%) | 0 (Herbicidal ratio of 5% or lower (almost no effect)) | 5 (Herbicidal ratio of 90% or more (almost completely withered)) | –
CON=C(CC1CC(O)=C(c2c(C)cc(C)cc2C)C1=O)c1ccc(F)cc1 (stereo not shown) [1-133] | 0 (Herbicidal ratio of 5% or lower (almost no effect)) | 3 (Herbicidal ratio of 40% or higher and lower than 70%) | 0 (Herbicidal ratio of 5% or lower (almost no effect)) | 0 (Herbicidal ratio of 5% or lower (almost no effect)) | 0 (Herbicidal ratio of 5% or lower (almost no effect)) | 0 (Herbicidal ratio of 5% or lower (almost no effect)) | 3 (Herbicidal ratio of 40% or higher and lower than 70%) | 0 (Herbicidal ratio of 5% or lower (almost no effect)) | 4 (Herbicidal ratio of 70% or higher and lower than 90%) | 0 (Herbicidal ratio of 5% or lower (almost no effect)) | 3 (Herbicidal ratio of 40% or higher and lower than 70%) | 4 (Herbicidal ratio of 70% or higher and lower than 90%) | 4 (Herbicidal ratio of 70% or higher and lower than 90%) | 0 (Herbicidal ratio of 5% or lower (almost no effect)) | 0 (Herbicidal ratio of 5% or lower (almost no effect)) | 0 (Herbicidal ratio of 5% or lower (almost no effect)) | 3 (Herbicidal ratio of 40% or higher and lower than 70%) | –
CC(CC1CC(O)=C(c2c(C)cc(C)cc2C)C1=O)=NOCC(C)Br (stereo not shown) [1-135] | 4 (Herbicidal ratio of 70% or higher and lower than 90%) | 5 (Herbicidal ratio of 90% or more (almost completely withered)) | 2 (Herbicidal ratio of 20% or higher and lower than 40%) | 5 (Herbicidal ratio of 90% or more (almost completely withered)) | 5 (Herbicidal ratio of 90% or more (almost completely withered)) | 5 (Herbicidal ratio of 90% or more (almost completely withered)) | 3 (Herbicidal ratio of 40% or higher and lower than 70%) | 5 (Herbicidal ratio of 90% or more (almost completely withered)) | 4 (Herbicidal ratio of 70% or higher and lower than 90%) | 2 (Herbicidal ratio of 20% or higher and lower than 40%) | 1 (Herbicidal ratio of 5% or higher and lower than 20%) | 5 (Herbicidal ratio of 90% or more (almost completely withered)) | 5 (Herbicidal ratio of 90% or more (almost completely withered)) | 5 (Herbicidal ratio of 90% or more (almost completely withered)) | 3 (Herbicidal ratio of 40% or higher and lower than 70%) | 0 (Herbicidal ratio of 5% or lower (almost no effect)) | 5 (Herbicidal ratio of 90% or more (almost completely withered)) | –
CC(CC1CC(O)=C(c2c(C)cc(C)cc2C)C1=O)=NOCc1cccc(Cl)c1 (stereo not shown) [1-114] | 1 (Herbicidal ratio of 5% or higher and lower than 20%) | 5 (Herbicidal ratio of 90% or more (almost completely withered)) | 1 (Herbicidal ratio of 5% or higher and lower than 20%) | 5 (Herbicidal ratio of 90% or more (almost completely withered)) | 3 (Herbicidal ratio of 40% or higher and lower than 70%) | 5 (Herbicidal ratio of 90% or more (almost completely withered)) | 2 (Herbicidal ratio of 20% or higher and lower than 40%) | 5 (Herbicidal ratio of 90% or more (almost completely withered)) | 4 (Herbicidal ratio of 70% or higher and lower than 90%) | 4 (Herbicidal ratio of 70% or higher and lower than 90%) | 3 (Herbicidal ratio of 40% or higher and lower than 70%) | 0 (Herbicidal ratio of 5% or lower (almost no effect)) | 5 (Herbicidal ratio of 90% or more (almost completely withered)) | 3 (Herbicidal ratio of 40% or higher and lower than 70%) | 3 (Herbicidal ratio of 40% or higher and lower than 70%) | 0 (Herbicidal ratio of 5% or lower (almost no effect)) | 5 (Herbicidal ratio of 90% or more (almost completely withered)) | –
CC(CC1CC(OC(=O)N2CCOCC2)=C(c2c(C)cc(-c3ccc(Cl)cc3)cc2C)C1=O)=NOCC(F)(F)F (mixture of isomers) [9-025] | – | – | – | – | – | – | – | – | – | – | – | – | – | – | – | – | – | c: corn, effect on crop grade (corn): 5 (Herbicidal ratio of 90% or more (almost completely withered)); I: Avena fatua, herbicidal effect grade (Avena fatua [1]): 3 (Herbicidal ratio of 40% or higher and lower than 70%); Effect on crop grade, g: rapeseed (rapeseed [2]; [11]): 0 (Herbicidal ratio of 5% or lower (almost no effect)); b (directly sowed rice plant) effect on crop grade ([3]; Table 24): 2 (Herbicidal ratio of 20% or higher and lower than 40%); O: Chenopodium album, herbicidal effect grade (Chenopodium album [4]): 0 (Herbicidal ratio of 5% or lower (almost no effect)); B (Scirpus juncoides) herbicidal effect grade (Scirpus juncoides): 1 (Herbicidal ratio of 5% or higher and lower than 20%); R: Veronica persica, herbicidal effect grade (Veronica persica): 0 (Herbicidal ratio of 5% or lower (almost no effect)); F: Digitaria ciliaris, herbicidal effect grade (Digitaria ciliaris [5]): 5 (Herbicidal ratio of 90% or more (almost completely withered)); g: rapeseed, effect on crop grade (rapeseed [6]): 0 (Herbicidal ratio of 5% or lower (almost no effect)); e: wheat, effect on crop grade (wheat): 0 (Herbicidal ratio of 5% or lower (almost no effect)); P: Stellaria media, herbicidal effect grade (Stellaria media): 0 (Herbicidal ratio of 5% or lower (almost no effect)); Herbicidal effect grade, H: Echinochloa crus-galli var. crus-galli [7, 11]: 0 (Herbicidal ratio of 5% or lower (almost no effect)); Herbicidal effect grade, F: Digitaria ciliaris (Digitaria ciliaris [8]; [11]): 2 (Herbicidal ratio of 20% or higher and lower than 40%); Effect on crop grade, b: directly sowed rice plant (rice; [11]): 0 (Herbicidal ratio of 5% or lower (almost no effect)); Herbicidal effect grade, I: Avena fatua (Avena fatua [9]; [11]): 0 (Herbicidal ratio of 5% or lower (almost no effect)); Herbicidal effect grade, O: Chenopodium album (Chenopodium album [10]; [11]): 0 (Herbicidal ratio of 5% or lower (almost no effect)); Herbicidal effect grade, K: Lolium multiflorum Lam. (Lolium multiflorum Lam.; [11]): 0 (Herbicidal ratio of 5% or lower (almost no effect))
